The text below walks through data of US11135207B2, “Inhibitors of dihydroceramide desaturase for treating disease” (Centaurus Therapeutics, priority 2016, dated 2021).

In one assay the target is Des1 (Homo sapiens (Human), UniProt O15121). Kind of assay: Jurkat T cell measurement of conversion of dihydroceramide to ceramide. Type of assay: cell-based. The following applies: Jurkat clone E6-1 cells; for inhibition at 0.5 µM: 0.5 μM compound, read-out: Des1 % Inhib (0.5 μM). As for the experimental part: Jurkat T Cell Measurement of Conversion of Dihydroceramide to Ceramide
Des1, sequence (O15121 whole entry): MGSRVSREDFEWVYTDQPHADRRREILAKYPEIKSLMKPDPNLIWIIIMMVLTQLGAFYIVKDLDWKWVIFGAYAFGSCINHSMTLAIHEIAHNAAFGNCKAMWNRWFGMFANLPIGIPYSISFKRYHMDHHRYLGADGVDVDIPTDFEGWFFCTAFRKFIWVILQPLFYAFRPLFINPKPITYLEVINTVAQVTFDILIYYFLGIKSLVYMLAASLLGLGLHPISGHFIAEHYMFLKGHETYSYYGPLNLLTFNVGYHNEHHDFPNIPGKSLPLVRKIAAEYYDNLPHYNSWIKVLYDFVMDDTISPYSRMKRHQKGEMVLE
Jurkat clone E6-1 cells were grown and then seeded at 10^6 cells/mL in a 96-well plate (400 μL in each well. The cells were administered 100 μL of cell culture media containing 50-μM NBD-C6-dihydroceramide (Des1 substrate), affording a final concentration of substrate of 10 μM. The cells were incubated with substrate at 4° C. for 30 minutes. Following the incubation at 4° C., the cell suspension was centrifuged at 1200 rpm for 3 minutes, and the cell pellet is resuspended in 400 μL of fresh media containing various concentrations of either fenretinide (known Des1 inhibitor control compound) or test article. The final concentrations of control compound and test compounds were tested in a range from 0-10 μM. The cells and compounds were incubated at 37° C. for 3 hours. Following the 3-hour incubation, the plate was centrifuged at 2500 g for 3 minutes at 4° C., followed by collection and transfer of 200 μL of the supernatant to a new 96-well plate with 300 μL of methanol an containing appropriate internal standards for liquid chromatography/tandem mass spectroscopy (LC/MS/MS) analysis (internal standard: 500 nM labetalol and 100 nM alprazolam). The samples were vortexed for 2 minutes followed by centrifugation at 3,220 g for 20 minutes. Following centrifugation, 200 μL of the supernatant was transferred to a new 96-well plate for LC-MS/MS analysis to determine the amount of NBD-C6-ceramide (Des1 product) produced. The assay was typically performed in duplicate. A reduction of at least 30% compared to vehicle control (0 μM test article) is indicative of an active compound, and a reduction of 75% compared to vehicle control is preferred.

Assay [1] has as its system insulin-stimulated Akt phosphorylation in C2C12 myotubes. The assay is described as follows: C2C12 myotube assay of insulin-stimulated phosphorylation of Akt. Type of assay: cell-based. The following applies: Mus musculus, in the presence of palmitate, read-out: half-maximal effective concentration (EC50) for increasing insulin-stimulated Akt phosphorylation. The procedure: C2C12 Myotube Assay of Insulin-Stimulated Phosphorylation of Akt:
C2C12 myotubes are treated with 0.75 mM BSA-conjugated palmitate for 16 hours in the presence or absence of 7 non-zero concentrations of fenretinide (Des1 inhibitor control compound) or various test articles, followed by a 10-minute stimulation with insulin (100 nM). Cells are subsequently harvested and boiled in reducing SDS sample buffer and subjected to SDS-PAGE followed by detection of phosphorylated Akt, total Akt, and a suitable loading control (e.g. actin or GAPDH) by western blot using fluorescently-conjugated secondary antibodies. Band intensities are quantitated by an Odyssey imaging system (Li-COR), but could also be performed using HRP-conjugated secondary antibodies/enhanced chemiluminescence or by colorimetric readout.
Moreover, while currently contemplated for SDS-PAGE/immunoblot format, this assay could be adapted to ELISA or in-cell western (immunocytochemistry) formats for higher throughput testing of compounds. An increase of 30% compared to vehicle control (0 μM test article) is indicative of an active compound, and an increase of 50% compared to control is preferred. […] Des1 inhibitors disclosed herein are expected to be effective in this assay.

Another assay has as its system CFTR-KO mice. The following applies: cited from earlier work.
The mark [2] stands for this setting: NBD-C6-dihydroceramide substrate, read-out: Des1 IC50.

Read-outs that look alike come from different tables or passages of the source.

On to `O=C(Nc1ccc(O)cn1)c1ccc(-c2ccccc2Cl)cc1` [Example 38, 2′-chloro-N-(5-hydroxy-pyridin-2-yl)-[1,1′-biphenyl]-4-carboxamide], for which the inhibition at 0.5 µM on Des1 was determined as 95.4%. Moreover, the IC50 on Des1 (setting [2]) came to 19 nM.

`O=C(Nc1ccc(O)cn1)c1ccc(-c2c(Cl)cccc2Cl)cc1` [Example 39, 2′,6′-dichloro-N-(5-hydroxy-pyridin-2-yI)-[1,1′-biphenyl]-4-carboxamide]: the inhibition at 0.5 µM at Des1 is 65.9%. Consider `CC(C)O[C@H]1CC[C@H](C(=O)Nc2ccc(O)cn2)CC1` [Example 40, (1r,4r)-N-(5-hydroxypyridin-2-yl)-4-iso-propoxycyclo-hexane-1-carboxamide], for which the inhibition at 0.5 µM on Des1 is 92.6%. In addition, the IC50 at Des1 (setting [2]) was found to be 21 nM.

`CC(C)O[C@H]1CC[C@@H](C(=O)Nc2ccc(O)cn2)CC1` [Example 41, (1s,4s)-N-(5-hydroxypyridin-2-yl)-4-iso-propoxycyclo-hexane-1-carboxamide]: at Des1, the inhibition at 0.5 µM is 81.3%. Besides, the IC50 on Des1 (setting [2]) worked out at 88 nM. Turning to `CCc1ccc(C(=O)Nc2ccc(O)cn2)cc1` [Example 42, 4-ethyl-N-(5-hydroxy-pyridin-2-yl)-benzamide], on Des1, the inhibition at 0.5 µM stood at 85.5%. Moreover, the IC50 on Des1 (setting [2]) was found to be 130 nM.

With `Cc1ccc(C(=O)Nc2ccc(O)cn2)cc1` [Example 43, N-(5-hydroxy-pyridin-2-yl)-4-methylbenz-amide], at Des1, the inhibition at 0.5 µM turned out to be 59.3%. As to `O=C(Nc1ccc(O)cn1)c1ccc(C(F)(F)F)cc1` [Example 44, N-(5-hydroxy-pyridin-2-yl)-4-(trifluoro-methyl)-benzamide], the inhibition at 0.5 µM at Des1 was 88%. Besides, the IC50 at Des1 (setting [2]) turned out to be 63 nM. On the same counts, the results for `CC(c1ccc(C(=O)Nc2ccc(O)cn2)cc1)C(F)(F)F` (stereo not drawn) [Example 45, N-(5-hydroxy-pyridin-2-yl)-4-(1,1,1-trifluoro-propan-2-yl)-benzamide] are 94% and 23 nM. For the molecule `O=C(CC1CCN(c2ccc(C(F)(F)F)cc2)CC1)Nc1ccc(O)cn1` [Example 46, N-(5-hydroxypyridin-2-yl)-2-[1-[4-(trifluoromethyl)phenyl]piperidin-4-yl]acetamide], the inhibition at 0.5 µM at Des1 is 96.2%. Turning to `O=C(CN1CCN(c2ccc(C(F)(F)F)cc2)CC1)Nc1ccc(O)cn1` [Example 47, N-(5-hydroxypyridin-2-yl)-2-[4-[4-(trifluoromethyl)phenyl]piperazin-1-yl]acetamide], on Des1 (setting [2]), the IC50 stood at 50 nM.

On to `O=C(Nc1ccc(O)cn1)C1CCCN(c2ccc(F)cc2)C1` (stereo not drawn) [Example 48, 1-(4-fluorophenyl)-N-(5-hydroxypyridin-2-yl)piperidine-3-carboxamide], for which, on Des1, the inhibition at 0.5 µM turned out to be 91.3%. The IC50 on Des1 (setting [2]) amounted to 250 nM.

Turning to `O=C(CC1CCN(c2ccc(F)cc2)CC1)Nc1ccc(O)cn1` [Example 49, 2-[1-(4-fluorophenyl)piperidin-4-yl]-N-(5-hydroxypyridin-2-yl)acetamide], at Des1, the inhibition at 0.5 µM is 96.8%. The IC50 at Des1 (setting [2]) came to 13 nM. Consider `O=C(CN1CCN(c2ccc(F)cc2)CC1)Nc1ccc(O)cn1` [Example 50, 2-[4-(4-fluorophenyl)piperazin-1-yl]-N-(5-hydroxypyridin-2-yl)acetamide], for which the inhibition at 0.5 µM at Des1 worked out at 92.3%. For the same molecule, the IC50 at Des1 (setting [2]) turned out to be 140 nM. With `O=C(CC1CCN(c2ccc(Cl)cc2)CC1)Nc1ccc(O)cn1` [Example 51, 2-[1-(4-chlorophenyl)piperidin-4-yl]-N-(5-hydroxypyridin-2-yl)acetamide], on Des1, the inhibition at 0.5 µM stood at 97.3%. For the same molecule, the IC50 on Des1 (setting [2]) is 5 nM.

On to `O=C(CN1CCN(c2ccc(Cl)cc2)CC1)Nc1ccc(O)cn1` [Example 52, 2-[4-(4-chlorophenyl)piperazin-1-yl]-N-(5-hydroxypyridin-2-yl)acetamide], for which, at Des1, the inhibition at 0.5 µM worked out at 94.1%. Further, at Des1 (setting [2]), the IC50 was 66 nM. As to `O=C(Nc1ccc(O)cn1)C1CCN(c2ccc(C(F)(F)F)cc2)CC1` [Example 53, N-(5-hydroxypyridin-2-yl)-1-[4-(trifluoromethyl)phenyl]piperidine-4-carboxamide], on Des1 (setting [2]), the IC50 was 2 nM. On to `O=C(Nc1ccc(O)cn1)C1CCN(c2ccc(F)cc2)CC1` [Example 54, 1-(4-fluorophenyl)-N-(5-hydroxypyridin-2-yl)piperidine-4-carboxamide], for which, on Des1, the inhibition at 0.5 µM is 96.6%. For the same molecule, the IC50 at Des1 (setting [2]) worked out at 11 nM. As to `CC1=C(/C=C/C(C)=C/C=C/C(C)=C/C(=O)Nc2ccc(O)cc2)C(C)(C)CCC1` [fenretinide], the EC50 in assay [1] turned out to be 600 nM. Also, the IC50 on Des1 (read-out: half-maximal inhibitory concentration (IC50)) was 100 to 250 nM. For the same molecule, the “susceptibility to infection with Pseudomonas aeruginosa” value in the assay with CFTR-KO mice (CFTR-KO mice) is recorded as “reduce susceptibility to infection with Pseudomonas aeruginosa”. Also, the “lung AA/DHA ratio” value in the assay with CFTR-KO mice (lungs of CFTR-KO mice) is recorded as “normalize this ratio”.
